Test system: osteosarcoma cells
Experiment: Cell viability after 1 µM obatoclax or navitoclax (CellTiter-Glo)
Format: cell-based, human
Conditions: 72 hours, 11 types of osteosarcoma cells, Fig. 1B
Experimental: Among these five compounds, obatoclax, a pan-BH3 mimetic, was further investigated. Specifically, the osteosarcoma cells (the above described 11 types of osteosarcoma cells) were seeded in triplicate at a density of 2000 cells/well on 96-well plates (Greiner) or type I collagen-coated plates (IWAKI) and cultured for at least 24 hours. The osteosarcoma cells (i.e., the above described 11 types) were then treated with 1 µ(micro)M obatoclax for 72 hours, after which cell viability was measured using the CellTiter-Glo assay reagent.

**Q.** `CC1(C)CCC(c2ccc(Cl)cc2)=C(CN2CCN(c3ccc(C(=O)NS(=O)(=O)c4ccc(N[C@H](CCN5CCOCC5)CSc5ccccc5)c(S(=O)(=O)C(F)(F)F)c4)cc3)CC2)C1` [navitoclax] was tested. Which cell viability did it give?
**A.** Its cell viability is “little effect on osteosarcoma cell proliferation”.

From patent EP4721758A1, “NOVEL MEDICINE FOR TREATING OSTEOSARCOMA” (Japanese Foundation For Cancer Research, priority 2023, dated 2024)
